Read-outs that look alike come from different tables or passages of the source.
What was measured:
[1] = system: MDA-MB-231 breast cancer cell line; experiment: Colony formation assay (clonogenic survival), parental MDA-MB-231; format: cell-based
Procedure: (§1) Colony Formation Assay (CFA).
(§2) Cells were seeded out in appropriate dilutions and treated with the vehicle (0.01% DMSO) or PARP inhibitors at various concentrations for 24 hr. After treatment, cells were then cultured in drug-free medium for several days (at least six rounds of replication), depending on the proliferation rate of each cell line. Colonies were fixed with formaldehyde (4%) and stained with crystal violet. Colonies containing more than 50 normal-appearing cells were counted using a microscope. Each drug concentration was assessed in triplicate, and the experiments were repeated three times.

MDA-MB-231 shSCR cells = experiment: Colony formation assay (clonogenic survival), MDA-MB-231 shSCR; format: cell-based
Procedure: as §1, §2

MDA-MB-231 shPARP1 cells = experiment: Colony formation assay (clonogenic survival), MDA-MB-231 shPARP1; format: cell-based
Procedure: as §1, §2

MDA-MB-231 shK-H cells = experiment: Colony formation assay (clonogenic survival), MDA-MB-231 shK-H; format: cell-based; details: for sensitivity of shK-H cells in colony forming assays: shK-H cells compared to parental or shSCR 231 cells, 24 hr treatment; for CC50: Homo sapiens
Procedure: as §1, §2

[2] = system: HCC1569 breast cancer cell line; experiment: cells; format: cell-based; details: Homo sapiens, HCC1569, read-out: AG014699 Mean LC50 (SEM)
Procedure: as §1, §2

[3] = system: HCC202 breast cancer cell line; experiment: cells; format: cell-based; details: HCC202, read-out: AG014699 Mean LC50 (SEM)
Procedure: as §1, §2

[4] = system: HTB122 breast cancer cell line; experiment: cells; format: cell-based; details: read-out: AG014699 Mean LC50 (SEM)
Procedure: as §1, §2

[5] = system: HTB24 breast cancer cell line; experiment: cells; format: cell-based; details: read-out: AG014699 Mean LC50 (SEM)
Procedure: as §1, §2

[6] = system: MCF-7 breast cancer cell line; experiment: cells; format: cell-based; details: Homo sapiens, MCF7, read-out: AG014699 Mean LC50 (SEM)
Procedure: as §1, §2

PARP1 = PARP1 (Homo sapiens, UniProt P09874); experiment: PARP activity assay (PAR formation, immunoblot of total protein lysates); format: biochemical; details: lysates of parental, shK-H, shPARP1, shSCR 231 cells
Procedure: PARP Activity Assay. PARP activity was measured using immunoblot assay, which measured the amount of poly(ADP)-ribonucleotide (PAR) products synthesized using total protein lysates for PARP enzymatic activity in vitro. Briefly, the reaction containing total protein lysate (90 μg), and excess blunt-ended double-strand DNA oligonucleotide (26-mer) with internal synthetic abasic site (50 uM) in a reaction buffer containing Tris-HCl (10 mM, pH=7.4) and Mg^2+ (12 mM) was initiated by addition of excess β-NAD^+ (10 mM). The reaction was then stopped at various time-points by the addition of ice-cold concentrated AG014699/Rucaparib (250 μM), a known PARP1 inhibitor. Aliquots from each time points of the reaction were blotted onto a nitrocellulose membrane (BioRad dot blotter), and processed using standard Western blot assays. The density of each dots were quantified by ImageJ and plotted by GraphPad PRISM after normalization to controls (no NAD^+ addition).

shK-H 231 cells [7] = experiment: TUNEL assay of apoptotic cell death; format: cell-based; details: Rucaparib 5 and 10 μM, 24 hr
Procedure: TUNEL Assay. To measure apoptotic cell death, log phase 231 shSCR or shK-H cells were treated with the vehicle (0.01% DMSO) or Rucaparib (5 and 10 μM) for 24 hr, and incubated in drug-free media for additional 72 hr in the cell incubator. The cells were then harvested and fixed in 70% ethanol overnight at −20° C. Equal amount of cells from each treatment were then subjected to terminal deoxynucleotidyltransferase dUTP nick end labeling (TUNEL) following the standard protocols from APO-Direct TUNEL Assay kit (BD Biosciences), which include positive and negative controls. Flow cytometry experiments were immediately performed using the BD LSRFortessa II cell analyzer, and data were analyzed using the BD FACSDiva software (www.bdbiosciences.com). All experiments were performed in triplicate.

shK-H 231 cells [8] = experiment: Immunofluorescence of γ-H2AX and 53BP1 foci (DSB markers), shK-H cells; format: cell-based; details: shK-H-depleted 231 cells, Rucaparib 5 μM, 24 hr
Procedure: (§3) MDA-MB-231 shSCR or shK-H cells were plated in a six-well plate (˜200,000 each well containing a glass slide) overnight. The next day, cells were treated with DMSO (0.01%) or Rucaparib/AG014699 (5 μM) for 24 hr. After treatment, the media was gently replaced with drug-free media and harvested at various times (0, 1, 6, 24 hr). The slides were gently washed with phosphate-buffered solution (pH=7.4), and fixed with ice cold methanol:acetone solution (3:1) for 10 min at −20° C. The cells were then washed and rehydrated with PBS at room temperature (3×, 5 min intervals). Next, the cells were incubated in blocking solution (5% normal goat serum in PBS) for 60 min at RT. After blocking, the cells were then incubated in primary antibody (diluted in 5% normal goat serum in PBS) overnight at 4° C. The next day, the cells were washed three times with wash buffer (1% BSA in PBS; 5 min. interval between washes). […]
(§4) To elucidate the mechanism by which K-H depletion sensitizes cells to PARP inhibition, the inventors treated shSCR vs shK-H 231 cells with vehicle (0.01% DMSO) or Rucaparib (5 μM) for 24 hr and quantified DSB formation at various times post-treatment using γ-H2AX and/or 53BP1 as surrogate DSB markers (Lobrich et al., 2010; Anderson et al., 2001 and Bekker-Jensen et al., 2005) (representative images, FIG. 2A).

shSCR 231 cells = experiment: Immunofluorescence of γ-H2AX and 53BP1 foci (DSB markers), shSCR cells; format: cell-based; details: shSCR 231 cells with wild-type K-H; Rucaparib 5 μM, 24 hr
Procedure: as §3, §4

HCC1937 cells = experiment: Sulforhodamine B viability assay in HCC1937 cells; format: cell-based; details: Rucaparib 30 μM, 24 hr
Excerpt: FIGS. 8A-H. Pharmacological and genetic ablation of PARP1 activity is synthetic lethal with aberrant K-H reduction in BRCA-proficient breast cancers. (FIG. 8A) Western blot analysis of the parental BRCA-proficient 231 TNBC compared with 231 cells engineered to generate stable short hairpin RNA targeting non-specific gene control (shSCR), Kub5-Hera (shK-H) or PARP1 (shPARP1). (FIG. 8B) Chemical structures of PARP inhibitors used in this study. Left, AG014361; Right, AG014699 or Rucaparib. (C) Colony formation of specified cell lines treated with varying concentrations (0, 1, 2.5, 5, 10, 25 μM) of PARP inhibitor, AG014361, for 24 hr. Survival is expressed as mean percentage of colonies formed relative to vehicle-treated (0.01% DMSO) cells; error bars represent ±s.e.m. from three replicates. (FIG. 8D) Total cellular proteins from indicated 231 cells treated with vehicle (0.01% DMSO), AG014699/Rucaparib (5 μM), or staurosporine (STS, 2 μM) were subjected to Western blot analysis with indicated antibodies. (FIG. 8E) Western blot analysis of HCC1937 cell lines stably transfected with empty vector (lane 1), BRCA1 cDNA (lane 2), BRCA1 cDNA+ transient siSCR (lane 3), or BRCA1 cDNA+ transient siK-H (lane 4). […] Colorimetric intensity values were obtained using a plate reader, and normalized to control (0.01% DMSO). […]

231 cells = experiment: Western blot analysis of pS1497-BRCA1 and CDK1 in 231 cells; format: cell-based; details: 24 hr; for CDK1 protein level: Rucaparib 5 μM and/or RO3066 0.5 and 1 μM
Procedure: FIGS. 9A-H. Loss of K-H compromises CDK1 expression/activity and reduces HR-mediated DSB repair. (FIG. 9[…]1 cells transiently transfected with indicated concentrations of siK-H for 48 hr. Total cellular proteins from each treatments were subjected to Western blot analysis using indicated antibodies. (FIG. 9B) Western blot analysis of CDK1 protein levels in 231 […] treated with siK-H (15 nM) and harvested at various times (24, 48, 72 hr). (FIG. 9C) Western blot analysis of CDK1 protein levels in 231 cells treated with siRNA to nonspecific gene control (siSCR) or specific genes as indicated (15 nM). Specific siRNA oligonucleotide sequences used in this study are listed in Table S3. […] (FIG. 9E) 231 cells treated with ionizing radiation (IR, 2 Gy) and harvested after 1 hr. […] Bottom, Endogenous phospho-[…] BRCA1 is higher in shSCR compared to shK-H. After IR treatment, […] BRCA1 phosphorylation is impaired in 231 shK-H but not in shSCR. (FIG. 9F) 231 cells treated with PARP1i Rucaparib (5 μM, 24 hr), CDK1 inhibitor RO3066 (0.5 and 1 μM, 24 hr) or combination [Rucaparib+RO3066]. Cells were harvested after 24 hr treatment. […] BRCA1 was activated ([…]-BRCA1) after Rucaparib treatment alone (lane 2) but not in combination with CDK1 inhibitor, RO3066 (lanes 5 and 6). […] (FIG. 90) Comparison of 231 […]) treated with Rucaparib (5 μM, 24 hr), CDK1 inhibitor RO3066 (1 μM, 24 hr) or combination [Rucaparib+RO3066]. Cells were harvested after 24 hr treatment. […] Endogenous […]-BRCA1 was higher in vehicle-treated shSCR (lane 1) compared to shK-H (lane 6). […] (FIG. 9H) Homologous recombination assay in MCF-7 cells using DR-GFP reporter system. Columns represent mean percentage of GFP-positive cells normalized to control (siSCR); error bars represent ±s.e.m. from duplicate experiments, *p<0.05, **p<0.01. See Table S3 for siRNA sequences. siK-H used was to 3'-UTR. Western Blot Analysis. Whole-cell lysates and nuclear extracts were prepared as previously described (Morales et al., 2014). See Supplementary Table S2 for a list of specific antibodies and dilutions used. Protein concentrations were determined by BCA Assay following manufacturer's instructions (Thermo Scientific). Normalized protein samples were separated on denaturing gradient gels (4-20% from BioRad) and were transferred to PVDF membranes for immunoblotting. After transfer, the membranes were first blocked with 1× Sigma Blocking Buffer for an hour at room temperature. The membranes were then incubated with the indicated primary antibodies diluted in 1× Sigma Blocking Buffer at 4° C. overnight. After this step, the membranes were washed with PBST (3×, 10 minutes each). HRP-conjugated secondary antibodies were diluted in 1× Sigma Blocking Buffer and incubated with the membranes at room temperature for 1 hr. […]

[9] = Homo sapiens, MDA-MB-231, read-out: AG014699 Mean LC50 (SEM)
[10] = Homo sapiens, MDA-MB-231, read-out: LC50 values

Chain of PARP1 (P09874 whole entry): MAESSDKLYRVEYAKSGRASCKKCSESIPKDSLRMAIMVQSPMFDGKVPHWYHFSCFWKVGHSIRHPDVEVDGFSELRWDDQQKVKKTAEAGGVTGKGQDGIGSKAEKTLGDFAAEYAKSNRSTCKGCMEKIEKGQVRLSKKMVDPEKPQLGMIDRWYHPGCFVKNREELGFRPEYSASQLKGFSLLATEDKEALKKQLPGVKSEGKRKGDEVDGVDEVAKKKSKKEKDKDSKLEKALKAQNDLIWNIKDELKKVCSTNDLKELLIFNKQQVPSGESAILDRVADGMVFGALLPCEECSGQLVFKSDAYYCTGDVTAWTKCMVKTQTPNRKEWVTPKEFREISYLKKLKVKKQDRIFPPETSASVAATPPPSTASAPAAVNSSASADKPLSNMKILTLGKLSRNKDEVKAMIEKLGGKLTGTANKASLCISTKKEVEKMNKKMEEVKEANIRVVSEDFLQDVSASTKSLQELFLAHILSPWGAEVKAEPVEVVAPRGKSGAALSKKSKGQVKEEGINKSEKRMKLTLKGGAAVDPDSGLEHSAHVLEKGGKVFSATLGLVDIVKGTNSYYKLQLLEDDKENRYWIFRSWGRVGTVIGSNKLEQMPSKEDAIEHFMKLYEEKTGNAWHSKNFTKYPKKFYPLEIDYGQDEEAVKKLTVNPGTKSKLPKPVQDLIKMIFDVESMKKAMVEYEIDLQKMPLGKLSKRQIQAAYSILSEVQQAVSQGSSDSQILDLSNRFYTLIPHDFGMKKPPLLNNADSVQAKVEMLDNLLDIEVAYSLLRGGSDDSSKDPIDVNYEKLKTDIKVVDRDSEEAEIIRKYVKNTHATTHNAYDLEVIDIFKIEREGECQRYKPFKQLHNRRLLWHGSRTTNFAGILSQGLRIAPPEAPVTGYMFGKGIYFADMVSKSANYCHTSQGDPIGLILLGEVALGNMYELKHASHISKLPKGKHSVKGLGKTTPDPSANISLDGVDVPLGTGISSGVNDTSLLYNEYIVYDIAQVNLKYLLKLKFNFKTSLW

With `CN(C)Cc1ccc(-c2nc3cccc4c3n2CCNC4=O)cc1` [AG014361] as the compound, how does the CC50 ([1]; parental 231 cells, similar treatment conditions, read-out: LC50 values) read?
The CC50 was ~20 µM.

And the CC50 (MDA-MB-231 shSCR cells; shSCR 231 cells, similar treatment conditions, read-out: LC50 values)?
The CC50 was ~20 µM.

And the “additional lethality in PARP1-deficient cells” value (MDA-MB-231 shPARP1 cells; shPARP1 231 cells, dose-response curve coinciding with parental or shSCR cells)?
The value was “did not induce additional lethality”.

What about the CC50 (MDA-MB-231 shPARP1 cells; shPARP1 231 cells, similar treatment conditions, read-out: LC50 values) of the same compound?
Its CC50 is ~20 µM.

What about the “sensitivity of shK-H cells in colony forming assays” value (MDA-MB-231 shK-H cells) of the same compound?
The value was “more sensitive”.

What does the source list for `CNCc1ccc(-c2[nH]c3cc(F)cc4c3c2CCNC4=O)cc1` [AG014699, Rucaparib]?
CC50 [1, 9]: 20 µM; CC50 [1, 10]: ~20 µM; CC50 [2]: 18 µM; CC50 [3]: 6.7 µM; CC50 [4]: 3.9 µM; CC50 [5]: 1.5 µM; CC50 [6]: 11 µM; CC50 (MDA-MB-231 shSCR cells; [9]): 18 µM; CC50 (MDA-MB-231 shSCR cells; [10]): ~20 µM; CC50 (MDA-MB-231 shPARP1 cells; [9]): 17 µM; CC50 (MDA-MB-231 shPARP1 cells; [10]): ~20 µM; CC50 (MDA-MB-231 shK-H cells; MDA-MB-231, read-out: AG014699 Mean LC50 (SEM)): 0.7 µM; CC50 (MDA-MB-231 shK-H cells; MDA-MB-231, read-out: lethality (LC50) in shK-H 231 cells): 0.66 µM; fold greater lethality than similar AG014361 exposures (MDA-MB-231 shK-H cells; shK-H 231 cells, Rucaparib vs AG014361): ~6 fold; Relative PARP enzymatic activity [PAR formation/Time (sec)] (PARP1): inhibited; apoptosis (% TUNEL+) (shK-H 231 cells [7]): dose-dependent increase in apoptosis; levels of co-localized γ-H2AX and 53BP1 foci (persistent DSBs) (shK-H 231 cells [8]): dramatically increased; DSB levels (53BP1 foci formation) (shK-H 231 cells [8]; over time post-treatment): Dramatic increase in DSB levels; levels of DSBs after exposure (shSCR 231 cells): significantly lower levels of DSBs; lethality after siK-H depletion of BRCA1-corrected cells (HCC1937 cells; BRCA1-corrected HCC1937 + siK-H): induced lethality; lethality after reconstitution with BRCA1 cDNA (HCC1937 cells; BRCA-deficient HCC1937 + BRCA1 cDNA): abolished; CDK1 protein level (231 cells; 231 cells): no further reduction of CDK1; BRCA1 activation (pS1497-BRCA1) (231 cells; 231 cells, Rucaparib alone 5 μM): activated

With `O=C1NC(=NCc2cccs2)S/C1=C\c1ccc2ncccc2c1` [RO3066] as the compound, how does the CDK1 protein level (231 cells; 231 cells) read?
Its CDK1 protein level is “no further reduction of CDK1”.

And the “pS1497-BRCA1 activation in combination with Rucaparib” value (231 cells; 231 shSCR cells, Rucaparib 5 μM + RO3066 1 μM)?
Its value is “inhibited”.

Which “sensitivity of shK-H cells in colony forming assays” value (MDA-MB-231 shK-H cells) does the source give for `Cn1ncnc1[C@H]1c2n[nH]c(=O)c3cc(F)cc(c23)N[C@@H]1c1ccc(F)cc1` [Talazoparib] here?
Its value is “more sensitive”.
